Test results published in patent publication US20060122276A1, “Agent for inhibiting membrane virus reproduction, method for the production thereof, pharmaceutical composition and method for inhibiting viral infections” (priority 2003, published 2006).
Where two headings read alike, the source gives them in different places.

Columns and labels:
HIV-1 [1] = system: HIV-1
Experimental: Cells Reinoculated humans lymphoblastoid cells MT-4 were used. […] The viability of the cells was determined from the color of a 0.4% solution of trypan blue.
Retrovir (azidothymidin) produced by GlaxoWellcome (Great Britain) was used as positive control.
The Antiviral activity of the preparations was investigated on a model of lymphoblastoid cells in a plastic 24-cell plate. The virus dose was 100 TCD50 (50% tissue cytopathic dose). […] The activity of the preparation was determined from the inhibition of the virus-induced cytopathic action (CPA) in the cell cultures and the virus antigen level in the culture fluid by immunoenzymatic analysis.

HIV-1 [2] = conditions: for Optical density: 6th day, values >0.086 are positive for HIV
hepatitis C virus = assay: Residual infectious activity (titers) of hepatitis C virus in SPEV culture medium; assay type: cell-based, hepatitis C virus genotype 1b; conditions: for Lowering of virus titers in SPEV cell cultures: administered simultaneously with the virus
Experimental: In our work we used cytopathogenic strain of hepatitis C virus belonging to geno-type 1b. The strain was isolated from the blood serum of a patient suffering from chronic viral hepatitis C, identified as hepatic C virus. Infective doses of HSV equal to 10 TCD of 50/20 μl were used in the investigation.
For titrating the residual infectiousness of the virus, the same line of porcine embryo kidney cells (SPEV) was used.
For studying the antiviral activity of the preparation, the preparation was introduced in various concentrations into the SPEV cell cultures at the moment of infection and in 24 hours after the infection with hepatitis C virus on the cell in 24-cell plastic culture plates.
For determining the residual infectious activity of HSV, samples of the culture fluid were taken from the plate cells three days after the treatment of the infected cells with the preparation and titrated on the SPEV cell cultures. The infectious activity of HSV was taken into account from the results of titration on the 6-7th day after the infection, when maximum cytopathogenic action of the virus developed, applying the Rid and Mench formula for calculating the titer of the Hepatitis C virus.

[3] = system: herpes simplex virus (HSV-1); assay: Antiviral activity with respect to HSV-1 in human embryo fibroblasts (M-21); assay type: cell-based, type 1, strain L2; conditions: 100 TCD50, 48 hours after the infection
Excerpt: Herpes simplex virus, type 1, strain L2, replicated in VERO cells was used in the investigation.
[…] acyclovir was used as positive control

[4] = system: human embryo fibroblasts (M-21); assay: Cytotoxic action on non-infected M-21 cells; assay type: cell-based; conditions: 500 and 1000 μg/ml; 3-days follow-up
[5] = 1 μg/ml, exposure 2 hrs, washing off of cells Yes, 6th day
[6] = 1 μg/ml, exposure 24 hrs, washing off of cells Yes, 6th day
[7] = 1 μg/ml, exposure during the entire experiment, washing off of cells No, 6th day
[8] = 10 μg/ml, 2 hrs of contact, washing off of cells No, 6th day
[9] = 10 μg/ml, 2 hrs of contact, washing off of cells Yes, 6th day
[10] = 10 μg/ml, HIV-1-infected lymphoblastoid cells, 5th day
[11] = 10 μg/ml, exposure 2 hrs (first such line, r25), washing off of cells Yes, 6th day
[12] = 10 μg/ml, exposure 2 hrs (second such line, r29), washing off of cells Yes, 6th day
[13] = 10 μg/ml, exposure 24 hrs, washing off of cells Yes, 6th day
[14] = 10 μg/ml, exposure during the entire experiment, washing off of cells No, 6th day
[15] = 100 μg/ml, HIV-1-infected lymphoblastoid cells, 5th day
[16] = preparation 1 hr after infecting, HIV-1
[17] = preparation 2 hrs before infecting, HIV-1
[18] = preparation + virus simultaneously, HIV-1

sodium salt of fullerene-polyamino-caproic acid
CPE/syncytia, + (HIV-1 [1]; 1 μg/ml, exposure 1 hr, washing off of cells Yes, 8th day): 1.5+
CPE/syncytia, + (HIV-1 [1]; [5]): 0.5+
Number of cells × 10^3 ml (HIV-1 [1]; [5]): 1700 × 10^3 ml
CPE/syncytia, + (HIV-1 [1]; 1 μg/ml, exposure 2 hrs, washing off of cells Yes, 8th day): 1+
CPE/syncytia, + (HIV-1 [1]; [6]): 0.1+
Number of cells × 10^3 ml (HIV-1 [1]; [6]): 2100 × 10^3 ml
CPE/syncytia, + (HIV-1 [1]; 1 μg/ml, exposure 24 hrs, washing off of cells Yes, 8th day): 0.5+
CPE/syncytia, + (HIV-1 [1]; [7]): 0 +
Number of cells × 10^3 ml (HIV-1 [1]; [7]): 2300 × 10^3 ml
CPE/syncytia, + (HIV-1 [1]; 1 μg/ml, exposure during the entire experiment, washing off of cells No, 8th day): 0 +
CPE/syncytia, + (HIV-1 [1]; [8]): 0 +
Number of cells × 10^3 ml (HIV-1 [1]; [8]): 2600 × 10^3 ml
CPE/syncytia, + (HIV-1 [1]; 10 μg/ml, 2 hrs of contact, washing off of cells No, 8th day): 0 +
CPE/syncytia, + (HIV-1 [1]; [9]): 1.75+
Number of cells × 10^3 ml (HIV-1 [1]; [9]): 1500 × 10^3 ml
CPE/syncytia, + (HIV-1 [1]; 10 μg/ml, 2 hrs of contact, washing off of cells Yes, 8th day): 3.0+
CPE/syncytia, % (HIV-1 [1]; [10]): 0%
Number of cells in 1 ml × 1000 (HIV-1 [1]; [10]): 1633 in 1 ml × 1000
CPE/syncytia, + (HIV-1 [1]; [11]): 0 +
Number of cells × 10^3 ml (HIV-1 [1]; [11]): 2300 × 10^3 ml
CPE/syncytia, + (HIV-1 [1]; 10 μg/ml, exposure 2 hrs (first such line, r25), washing off of cells Yes, 8th day): 0 +
CPE/syncytia, + (HIV-1 [1]; [12]): 0 +
Number of cells × 10^3 ml (HIV-1 [1]; [12]): 1800 × 10^3 ml
CPE/syncytia, + (HIV-1 [1]; 10 μg/ml, exposure 2 hrs (second such line, r29), washing off of cells Yes, 8th day): 0 +
CPE/syncytia, + (HIV-1 [1]; [13]): 0 +
Number of cells × 10^3 ml (HIV-1 [1]; [13]): 2300 × 10^3 ml
CPE/syncytia, + (HIV-1 [1]; 10 μg/ml, exposure 24 hrs, washing off of cells Yes, 8th day): 0 +
CPE/syncytia, + (HIV-1 [1]; [14]): 0 +
Number of cells × 10^3 ml (HIV-1 [1]; [14]): 2500 × 10^3 ml
CPE/syncytia, + (HIV-1 [1]; 10 μg/ml, exposure during the entire experiment, washing off of cells No, 8th day): 0 +
CPE/syncytia, % (HIV-1 [1]; [15]): 0%
Number of cells in 1 ml × 1000 (HIV-1 [1]; [15]): 1500 in 1 ml × 1000
CPE/syncytia, % (HIV-1 [1]; [16]): 0%
Number of cells in 1 ml × 1000 (HIV-1 [1]; [16]): 1100 in 1 ml × 1000
CPE/syncytia, % (HIV-1 [1]; [17]): 0%
Number of cells in 1 ml × 1000 (HIV-1 [1]; [17]): 1100 in 1 ml × 1000
CPE/syncytia, % (HIV-1 [1]; [18]): 0%
Number of cells in 1 ml × 1000 (HIV-1 [1]; [18]): 1100 in 1 ml × 1000
Optical density (HIV-1 [2]; 0.5 μg/ml): 2.147
Optical density (HIV-1 [2]; 1.0 μg/ml): 0.165
Optical density (HIV-1 [2]; 10 μg/ml): 0.074
Virus in the culture medium (HIV-1 [2]; 10 μg/ml, HIV-1): not detected
Titers of hepatitis C virus in medium samples taken on the 3rd day after infecting (hepatitis C virus; 6.25 μg/ml, introduced 24 hours after infecting (control 9.1)): 9.0 1 g TCD 50/20 μl
Titers of hepatitis C virus in medium samples taken on the 3rd day after infecting (hepatitis C virus; 6.25 μg/ml, introduced at the moment of infecting (control 9.5)): 9.7 1 g TCD 50/20 μl
Titers of hepatitis C virus in medium samples taken on the 3rd day after infecting (hepatitis C virus; 12.5 μg/ml, introduced 24 hours after infecting (control 9.1)): 9.9 1 g TCD 50/20 μl
Titers of hepatitis C virus in medium samples taken on the 3rd day after infecting (hepatitis C virus; 12.5 μg/ml, introduced at the moment of infecting (control 9.5)): 9.5 1 g TCD 50/20 μl
Titers of hepatitis C virus in medium samples taken on the 3rd day after infecting (hepatitis C virus; 25 μg/ml, introduced 24 hours after infecting (control 9.1)): 9.5 1 g TCD 50/20 μl
Titers of hepatitis C virus in medium samples taken on the 3rd day after infecting (hepatitis C virus; 25 μg/ml, introduced at the moment of infecting (control 9.5)): 9.3 1 g TCD 50/20 μl
Lowering of virus titers in SPEV cell cultures (hepatitis C virus; 50 μg/ml, listed as preparation): 3.0 lg
Titers of hepatitis C virus in medium samples taken on the 3rd day after infecting (hepatitis C virus; 50 μg/ml, introduced 24 hours after infecting (control 9.1)): 8.5 1 g TCD 50/20 μl
Titers of hepatitis C virus in medium samples taken on the 3rd day after infecting (hepatitis C virus; 50 μg/ml, introduced at the moment of infecting (control 9.5)): 6.2 1 g TCD 50/20 μl
Lowering of virus titers in SPEV cell cultures (hepatitis C virus; 100 μg/ml): 7.4 lg
Titers of hepatitis C virus in medium samples taken on the 3rd day after infecting (hepatitis C virus; 100 μg/ml, introduced 24 hours after infecting (control 9.1)): 3.0 1 g TCD 50/20 μl
Titers of hepatitis C virus in medium samples taken on the 3rd day after infecting (hepatitis C virus; 100 μg/ml, introduced at the moment of infecting (control 9.5)): 2.1 1 g TCD 50/20 μl
Protection of M-21 cells against the cytodestructive action of HSV-1 ([3]; 10 μg/ml): full protection
Protection of M-21 cells from the cytodestructive action of HSV-1 ([3]; 1.0, 10 and 50 μg/ml, introduced 30 and 60 minutes after the infection): full protection
Cytodestructive action on non-infected M-21 cells [4]: has not revealed cytodestructive action
